Positions of bridges follow the written chain, without caps; N, C: chain ends. Non-standard residues stand in square brackets, D forms with d. Residues, ends and D or L forms follow the SMILES beside them. Chains are numbered I, II in the order given. *: point of attachment. PEG6 = NCCOCCOCCOCCOCCOCCOCCC(=O)O; Palmitoyl = CCCCCCCCCCCCCCCC(=O)*
B1: BDNF protein: Human/Murine/Rat BDNF protein (Peprotech) (protein, UniProt P23560 19-247, looked up)
Neurotrophic factor BDNF …: APMKEANIRGQGGLAYPGVRTHGTLESVNGPKAGSRGLTSLADTFEHVIEELLDEDQKVRPNEENNKDADLYTSRVMLSSQVPLEPPLLFLLEEYKNYLDAANMSMRVRRHSDPARRGELSVCDSISEWVTAADKKTAVDMSGGTVTVLEKVPVSKGQLKQYFYETKCNPMGYTKEGCRGIDKRHWNSQCRTTQSYVRALTMDSKKRIGWRFIRIDTSCVCTLTIKRGR

Legend:
Format in all cases: cell-based, mouse
MAPK pathway (pErk 1/2) = assay: MAPK pathway activation, western blot of phosphorylated Erk (pErk 1/2); conditions: 6 h of treatment, vs control conditions
Experimental: (§1) For western blot, cells were cultured in 6 well plates at a density of approximately 900,000 cells/well for 14 DIV before being treated. Treatments were added for 2, 4, 6, 8, 12 or 24 h in vitro before protein was harvested. For TrkB inhibitor studies, cells were cultured for 14 DIV and then treated with a TrkB specific inhibitor, K-252a (Sigma Aldrich), for 1 hour prior to being treated with the different conditions mentioned above. Protein was extracted after six hours of treatment.
(§2) Western Blot. Protein was extracted from primary neuronal cultures with Halt Protease and Phosphatase Inhibitor Cocktail (Thermo Scientific) and a BCA assay (Thermo Scientific) was performed to determine protein content of each sample. Cell protein was loaded into and separated using a 4-20% SDS-PAGE gel (Bio-Rad). It was then electrotransferred from the gel to a nitrocellulose membrane (Bio-Rad). The membranes were blocked with 5% milk solution (Bio-Rad) for 30 minutes followed by an overnight incubation with primary antibodies at 4° C. […] Protein signals were detected using Radiance Bioluminescent ECL substrate (Azure Biosystems). Densitometry analysis, standardized to total receptor content or Actin as a control for protein loading, was performed using ImageJ software.^3 For quantification, triplicate samples were analyzed and at least two different experiments were conducted.

PI3K pathway (pAKT) = assay: PI3K pathway activation, western blot of phosphorylated AKT (pAKT); conditions: 6 h of treatment, vs control conditions
Experimental: as §1, §2

neuronal cells = assay: Neuronal maturation markers (MAP2, PSD95) by immunocytochemistry and western blot; conditions: neuronal cells (14 DIV) cultured during 16 DIV with treatment
Experimental: as §2, with “conducted. […]” for “conducted.”

Molecule | activation of the MAPK pathway (pErk 1/2) (MAPK pathway (pErk 1/2)) | activation of the PI3K pathway (pAKT) (PI3K pathway (pAKT)) | MAP2 expression (neuronal maturation marker) (neuronal cells)
CCCCCCCCCCCCCCCC(=O)N[C@H](C(=O)N[C@H](C(=O)N[C@@H](C)C(=O)N[C@@H](C)C(=O)N[C@@H](CCC(=O)O)C(=O)N[C@@H](CCC(=O)O)C(=O)N[C@@H](CCC(=O)O)C(=O)N[C@@H](CCC(=O)O)C(=O)NCCOCCOCCOCCOCCOCCOCCC(=O)NCCCC[C@@H]1NC(=O)[C@H]2CCCN2C(=O)[C@H](CCCNC(=N)N)NC(=O)[C@H](CCCCN)NC(=O)[C@H](CCCCN)NC1=O)C(C)C)C(C)C [BDNF PA, RKK(aK)(dP)-(PEG6 Spacer)-EEEEAAVV-C16 (SEQ ID NO: 5)] (I: Palmitoyl-VVAAEEEE[PEG6] / II: cyclo(KKKR[dP]); amide I:C-II:1) | marked increase in activation | marked increase in activation | significant increase
B1 | marked increase in activation | marked increase in activation | significant increase
